Drawing on ChEMBL document CHEMBL4304807, “Modulators of KEAP-1 Activity as Potential Therapies for the Treatment of Neurodegenerative Disorders” (ACS Med Chem Lett, 2019), this text covers EC50 for four molecules.

The target of this test is Kelch-like ECH-associated protein 1 (Homo sapiens, UniProt Q14145). Briefly: Inhibition of KEAP1 interaction with Nrf2 in human HEK293 cells transfected with ARE-LUC assessed as activation of Nrf2 signaling pathway measured after 18 hrs by steady-Glo luciferase assay. In kind it is cell-based.
Sequence of Kelch-like ECH-associated protein 1 (Q14145 whole entry): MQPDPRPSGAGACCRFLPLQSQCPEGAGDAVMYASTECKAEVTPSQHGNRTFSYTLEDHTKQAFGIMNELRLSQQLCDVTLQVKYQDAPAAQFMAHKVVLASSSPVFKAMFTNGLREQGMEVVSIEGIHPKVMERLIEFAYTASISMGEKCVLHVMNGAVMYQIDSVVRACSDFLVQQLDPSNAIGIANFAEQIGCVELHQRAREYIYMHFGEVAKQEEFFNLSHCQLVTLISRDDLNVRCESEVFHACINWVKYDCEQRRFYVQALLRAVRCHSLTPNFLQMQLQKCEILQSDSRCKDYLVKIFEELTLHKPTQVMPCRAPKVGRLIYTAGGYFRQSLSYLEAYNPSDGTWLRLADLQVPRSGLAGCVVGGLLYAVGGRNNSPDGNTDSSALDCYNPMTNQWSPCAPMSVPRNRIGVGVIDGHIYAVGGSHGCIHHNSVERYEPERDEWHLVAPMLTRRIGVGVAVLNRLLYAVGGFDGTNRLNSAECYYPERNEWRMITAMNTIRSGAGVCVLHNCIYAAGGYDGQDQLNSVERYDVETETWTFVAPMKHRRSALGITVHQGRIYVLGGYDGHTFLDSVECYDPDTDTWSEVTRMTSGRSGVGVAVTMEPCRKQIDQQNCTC

Consider `COC1(c2ncc(F)cc2-c2cnc(C)s2)C=C(C#N)C(=O)C(C)(C)C1` (centres undefined), for which the EC50 – broadly, the concentration that produces a half-maximal response – is 7 nM. The figure for `COC1(c2ncccc2C(F)(F)F)C=C(C#N)C(=O)C(C)(C)C1` (centres undefined) is 24 nM. In the case of `COC1(c2ncc(F)cc2C(F)F)C=C(C#N)C(=O)C2(CC2)C1` (centres undefined), the EC50 stood at 18 nM.

For `COC1(c2ncc(F)cc2OC(F)F)C=C(C#N)C(=O)C(C)(C)C1` (centres undefined), the EC50 came out at 8 nM.
